pIC50: −log10 of the molar value.
Biological target: T1, hTSHR (Homo sapiens, UniProt P16473)
T1 construct: expressed in transfected cells
Test: hTSHR TR-FRET cAMP Assay (inhibition of M22-stimulated cAMP production)
Format: cell-based
Settings: Expi293F Inducible cells stably expressing hTSHR; cAMP HTRF; stimulated with EC80 of anti-TSHR antibody M22; 15 min compound preincubation, 30 min at 37° C.; read-out: Activity (IC50 bins)
Method: Assays were performed using Expi293F Inducible cells (Invitrogen) stably expressing hTSHR via a pcZeo TetO DNA plasmid. Cell lines were maintained in suspension in Expi293 Expression Medium (ThermoFisher Scientific) supplemented with 10 µg/mL Blasticidin and 10 μg/mL Zeocin and incubated at 37° C., 8% CO2, with shaking. hTSHR cells were incubated overnight at 32° C., 5% C02, with shaking, but […] Doxycycline. Assay-ready aliquots were prepared by harvesting each cell type separately 24-hours post-induction. Cells were pelleted at 4° C., resuspended in Expi293 Expression media+10% DMSO, aliquoted, and kept frozen at −80° C. until ready for use.
For the assay, concentration-response curves of test and reference compounds were added to 384-well plates using an Echo 650 liquid handler (Beckman Coulter) and backfilled with DMSO to a final concentration of 0.5%. cAMP was measured using the cisbio cAMP Gs dynamic HTRF kit (PerkinElmer) according to manufacturer instructions. Aliquots of frozen hTSHR cells were quickly thawed and washed with phosphate-buffered saline (Sigma-Aldrich) to remove media and DMSO. The cells were resuspended in kit-supplied Stimulation Buffer at 0.8×10^6 cells/mL. 7.5 μL of the hTSHR cell dilution were added to each well of the assay plate and incubated with the compounds for 15 minutes in a 37 C, 0% CO2 incubator. 2.5 μL of Vehicle control or an EC80 concentration of recombinant human anti-TSHR antibody (M22, Creative Biolabs) was added to stimulate cAMP production. Cells were incubated with for 30 minutes at 37° C., 0% CO2. Following this incubation, the cells were lysed and accumulated cAMP was detected through the addition of kit-supplied lysis buffer containing d2-reagent and Eu-cryptate antibody. The HTRF signal was quantified using a BMG Clariostar plate reader optimized for HTRF assays. The HTRF ratio was determined by dividing the signal output at […] by that at 620 nm. Data were normalized to the signal produced by the EC80 concentration of either M22 or FSH (0% inhibition) and vehicle (no agonist, 100% inhibition).

T1 sequence (P16473 21-764): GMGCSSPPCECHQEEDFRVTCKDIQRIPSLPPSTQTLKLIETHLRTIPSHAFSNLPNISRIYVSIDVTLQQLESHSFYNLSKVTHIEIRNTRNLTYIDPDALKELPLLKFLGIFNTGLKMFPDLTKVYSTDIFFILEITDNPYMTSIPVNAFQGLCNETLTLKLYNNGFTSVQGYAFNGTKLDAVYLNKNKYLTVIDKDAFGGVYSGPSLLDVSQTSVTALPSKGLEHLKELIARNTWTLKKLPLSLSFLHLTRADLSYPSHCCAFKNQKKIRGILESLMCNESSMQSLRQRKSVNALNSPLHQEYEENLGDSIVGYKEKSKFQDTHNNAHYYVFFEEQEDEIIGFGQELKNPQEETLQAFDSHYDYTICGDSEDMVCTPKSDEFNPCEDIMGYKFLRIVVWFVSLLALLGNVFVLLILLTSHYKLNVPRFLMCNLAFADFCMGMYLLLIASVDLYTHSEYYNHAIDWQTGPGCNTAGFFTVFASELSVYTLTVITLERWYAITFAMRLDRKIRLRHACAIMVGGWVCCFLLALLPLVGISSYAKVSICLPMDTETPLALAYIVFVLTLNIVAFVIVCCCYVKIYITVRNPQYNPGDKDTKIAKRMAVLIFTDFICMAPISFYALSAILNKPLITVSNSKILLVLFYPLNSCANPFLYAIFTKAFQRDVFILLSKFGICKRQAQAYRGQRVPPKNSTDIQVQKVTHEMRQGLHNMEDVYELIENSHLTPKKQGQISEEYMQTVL

SMILES | pIC50
CC(C)(C)NC(=O)Nc1ccc2c(c1)CCC(=O)N2Cc1cccc(F)c1 [Example 26, 1-(tert-butyl)-3-(1-(3-fluorobenzyl)-2-oxo-1,2,3,4-tetrahydroquinolin-6-yl)urea] | > 7.00
CC(C)(C)NC(=O)Nc1ccc2c(c1)CCC(=O)N2Cc1ccc(F)cc1 [Example 27, 1-(tert-butyl)-3-(1-(4-fluorobenzyl)-2-oxo-1,2,3,4-tetrahydroquinolin-6-yl)urea] | 6.00 to 7.00
CCC(c1ccccc1)N1C(=O)CCc2cc(NC(=O)NC(C)(C)C)ccc21 (centres unmarked) [Example 28, 1-(tert-butyl)-3-(2-oxo-1-(1-phenylpropyl)-1,2,3,4-tetrahydroquinolin-6-yl)urea] | < 6.00
CC(C)(C)NC(=O)Nc1ccc2c(c1)CC(C)(C)C(=O)N2Cc1ccccc1 [Example 29, 1-(1-benzyl-3,3-dimethyl-2-oxo-1,2,3,4-tetrahydroquinolin-6-yl)-3-(tert-butyl)urea] | < 6.00
CC(C)(C)NC(=O)Nc1ccc2c(c1)CCC(=O)N2C(CO)c1ccccc1 (centres unmarked) [Example 30, 1-(tert-butyl)-3-(1-(2-hydroxy-1-phenylethyl)-2-oxo-1,2,3,4-tetrahydroquinolin-6-yl)urea] | < 6.00
CC(C)(C)NC(=O)Nc1ccc2c(c1)CC(=O)N2Cc1ccccc1 [Example 31, 1-(1-benzyl-2-oxo-3H-indol-5-yl)-3-tert-butylurea] | < 6.00
CC(C)C1Cc2cc(NC(=O)NC(C)(C)C)ccc2N(Cc2ccccc2)C1=O (centres unmarked) [Example 32, 1-(1-benzyl-3-isopropyl-2-oxo-1,2,3,4-tetrahydroquinolin-6-yl)-3-(tert-butyl)urea] | < 6.00
CC(C)(C)NC(=O)Nc1ccc2c(c1)OCC(=O)N2Cc1cccc(Cl)c1 [Example 33, 3-tert-butyl-1-{4-[(3-chlorophenyl)methyl]-3-oxo-2H-1,4-benzoxazin-7-yl}urea] | > 7.00
C[C@H](c1ccccc1)N1C(=O)COc2cc(NC(=O)NC(C)(C)C)ccc21 [Example 34, (R)-1-(tert-butyl)-3-(3-oxo-4-(1-phenylethyl)-3,4-dihydro-2H-benzo[b][1,4]oxazin-7-yl)urea] | 6.00 to 7.00
C[C@@H](c1ccccc1)N1C(=O)COc2cc(NC(=O)NC(C)(C)C)ccc21 [Example 35, (S)-1-(tert-butyl)-3-(3-oxo-4-(1-phenylethyl)-3,4-dihydro-2H-benzo[b][1,4]oxazin-7-yl)urea] | > 7.00
C[C@H](c1cccc(Cl)c1)N1C(=O)COc2cc(NC(=O)NC(C)(C)C)ccc21 [Example 36, (R)-1-(tert-butyl)-3-(4-(1-(3-chlorophenyl)ethyl)-3-oxo-3,4-dihydro-2H-benzo[b][1,4]oxazin-7-yl)urea] | < 6.00
C[C@@H](c1cccc(Cl)c1)N1C(=O)COc2cc(NC(=O)NC(C)(C)C)ccc21 [Example 37, (S)-1-(tert-butyl)-3-(4-(1-(3-chlorophenyl)ethyl)-3-oxo-3,4-dihydro-2H-benzo[b][1,4]oxazin-7-yl)urea] | > 7.00
CC(C)(C)NC(=O)Nc1ccc2c(c1)oc(=O)n2Cc1ccccc1 [Example 38, 1-(3-benzyl-2-oxo-2,3-dihydrobenzo[d]oxazol-6-yl)-3-(tert-butyl)urea] | < 6.00
CC(C)(C)NC(=O)Nc1ccc2c(c1)CCC(=O)N2Cc1cc(C(F)(F)F)ccc1F [Example 39, 1-(tert-butyl)-3-(1-(2-fluoro-5-(trifluoromethyl)benzyl)-2-oxo-1,2,3,4-tetrahydroquinolin-6-yl)urea] | > 7.00
Cc1cccc(CN2C(=O)COc3cc(NC(=O)NC(C)(C)C)ccc32)c1 [Example 40, 1-(tert-butyl)-3-(4-(3-methylbenzyl)-3-oxo-3,4-dihydro-2H-benzo[b][1,4]oxazin-7-yl)urea] | > 7.00
C[C@H]1Oc2cc(NC(=O)NC(C)(C)C)ccc2N(Cc2ccccc2)C1=O [Example 41, (R)-1-(4-benzyl-2-methyl-3-oxo-3,4-dihydro-2H-benzo[b][1,4]oxazin-7-yl)-3-(tert-butyl)urea] | > 7.00
C[C@@H]1Oc2cc(NC(=O)NC(C)(C)C)ccc2N(Cc2ccccc2)C1=O [Example 42, (S)-1-(4-benzyl-2-methyl-3-oxo-3,4-dihydro-2H-benzo[b][1,4]oxazin-7-yl)-3-(tert-butyl)urea] | > 7.00

The remaining lines, values ahead:

pIC50 | SMILES
> 7.00 | C[C@@H](c1ccccc1)N1C(=O)N(C)Cc2cc(NC(=O)NC(C)(C)C)ccc21 [Example 45, 3-tert-butyl-1-{3-methyl-2-oxo-1-[(1S)-1-phenylethyl]-4H-quinazolin-6-yl}urea]
< 6.00 | C[C@H](c1ccccc1)N1C(=O)N(C)Cc2cc(NC(=O)NC(C)(C)C)ccc21 [Example 45A, 3-tert-butyl-1-{3-methyl-2-oxo-1-[(1R)-1-phenylethyl]-4H-quinazolin-6-yl}urea]
> 7.00 | C[C@@H](c1cccc(Cl)c1)N1C(=O)N(C)Cc2cc(NC(=O)NC(C)(C)C)ccc21 [Example 46]
> 7.00 | CN1Cc2cc(NC(=O)NC(C)(C)C)ccc2N(Cc2cccc(Cl)c2)C1=O [Example 47, 1-(tert-butyl)-3-(1-(3-chlorobenzyl)-3-methyl-2-oxo-1,2,3,4-tetrahydroquinazolin-6-yl)urea]
> 7.00 | Cc1cccc(CN2C(=O)CCc3cc(NC(=O)NC(C)(C)C)ccc32)c1F [Example 48, 1-(tert-butyl)-3-(1-(2-fluoro-3-methylbenzyl)-2-oxo-1,2,3,4-tetrahydroquinolin-6-yl)urea]
> 7.00 | Cc1ccc(F)c(CN2C(=O)CCc3cc(NC(=O)NC(C)(C)C)ccc32)c1 [Example 49, 1-(tert-butyl)-3-(1-(2-fluoro-5-methylbenzyl)-2-oxo-1,2,3,4-tetrahydroquinolin-6-yl)urea]
> 7.00 | CC(C)(C)NC(=O)Nc1ccc2c(c1)OCC(=O)N2Cc1cccc(C(F)(F)F)c1 [Example 50, 1-(tert-butyl)-3-(3-oxo-4-(3-(trifluoromethyl)benzyl)-3,4-dihydro-2H-benzo[b][1,4]oxazin-7-yl)urea]
< 6.00 | CC(C)(C)NC(=O)Nc1ccc2c(c1)CC(CO)C(=O)N2Cc1ccccc1 (centres unmarked) [Example 51, 1-(1-benzyl-3-(hydroxymethyl)-2-oxo-1,2,3,4-tetrahydroquinolin-6-yl)-3-(tert-butyl)urea]
< 6.00 | C[C@H](c1cccc(Cl)c1)N1C(=O)N(C)Cc2cc(NC(=O)NC(C)(C)C)ccc21 [Example 52]
6.00 to 7.00 | Cc1cccc(CN2C(=O)CCc3cc(NC(=O)NC(C)(C)C)ccc32)c1C#N [Example 53, 3-tert-butyl-1-{1-[(2-cyano-3-methylphenyl)methyl]-2-oxo-3,4-dihydroquinolin-6-yl}urea]
> 7.00 | CC(C)(C)NC(=O)Nc1ccc2c(c1)CCC(=O)N2Cc1cccc(C(F)(F)F)c1F [Example 54, 1-(tert-butyl)-3-(1-(2-fluoro-3-(trifluoromethyl)benzyl)-2-oxo-1,2,3,4-tetrahydroquinolin-6-yl)urea]
> 7.00 | CC(C)(C)NC(=O)Nc1ccc2c(c1)CCC(=O)N2Cc1cc(C(F)(F)F)ccc1C#N [Example 55, 3-tert-butyl-1-(1-{[2-cyano-5-(trifluoromethyl)phenyl]methyl}-2-oxo-3,4-dihydroquinolin-6-yl) urea]
> 7.00 | Cc1cccc([C@H](C)N2C(=O)CCc3cc(NC(=O)NC(C)(C)C)ccc32)c1 [Example 56, (S)-1-(tert-butyl)-3-(2-oxo-1-(1-(m-tolyl)ethyl)-1,2,3,4-tetrahydroquinolin-6-yl)urea]
> 7.00 | Cc1cccc([C@H](C)N2C(=O)COc3cc(NC(=O)NC(C)(C)C)ccc32)c1 [Example 57, (S)-1-(tert-butyl)-3-(3-oxo-4-(1-(m-tolyl)ethyl)-3,4-dihydro-2H-benzo[b][1,4]oxazin-7-yl)urea]
> 7.00 | C[C@@H](c1ccccc1F)N1C(=O)CCc2cc(NC(=O)NC(C)(C)C)ccc21 [Example 58, 3-tert-butyl-1-{1-[(1S)-1-(2-fluorophenyl)ethyl]-2-oxo-3,4-dihydroquinolin-6-yl}urea]
6.00 to 7.00 | CC(C)(C)NC(=O)Nc1ccc2c(c1)CCC(=O)N2Cc1cccc(C(F)(F)F)c1C#N [Example 59, 1-(tert-butyl)-3-(1-(2-cyano-3-(trifluoromethyl)benzyl)-2-oxo-1,2,3,4-tetrahydroquinolin-6-yl)urea]
> 7.00 | C[C@@H](c1cccc(C(F)(F)F)c1)N1C(=O)CCc2cc(NC(=O)NC(C)(C)C)ccc21 [Example 60, (S)-3-tert-butyl-1-(2-oxo-1-{1-[3-(trifluoromethyl)phenyl]ethyl}-3,4-dihydroquinolin-6-yl)urea]
6.00 to 7.00 | C[C@@H](c1ccccc1C#N)N1C(=O)CCc2cc(NC(=O)NC(C)(C)C)ccc21 [Example 61, (S)-1-(tert-butyl)-3-(1-(1-(2-cyanophenyl)ethyl)-2-oxo-1,2,3,4-tetrahydroquinolin-6-yl)urea]

From US20260365628A1, “SUBSTITUTED 3,4-DIHYDROQUINOLINONE INHIBITORS OF TSHR” (Septerna, Inc., priority 2022, published 2026)
